Test results published in patent US20250250230A1, “HETEROCYCLIC COMPOUND” (TAKEDA PHARMACEUTICAL COMPANY LIMITED, priority 2022, published 2025).

The compounds below were run against T1, human orexin type 2 receptor (Homo sapiens, UniProt O43614) (assay: Measurement of orexin type 2 receptor agonist activity (calcium fluorescence, Fluo-4 AM, FDSS)). Settings: test compound 3 μM; CHO cells expressing human OX2 receptor; DMSO = 0%, orexin A (human) = 100%.
T1 construct: expressed in transfected cells
T1 sequence (O43614 1-444): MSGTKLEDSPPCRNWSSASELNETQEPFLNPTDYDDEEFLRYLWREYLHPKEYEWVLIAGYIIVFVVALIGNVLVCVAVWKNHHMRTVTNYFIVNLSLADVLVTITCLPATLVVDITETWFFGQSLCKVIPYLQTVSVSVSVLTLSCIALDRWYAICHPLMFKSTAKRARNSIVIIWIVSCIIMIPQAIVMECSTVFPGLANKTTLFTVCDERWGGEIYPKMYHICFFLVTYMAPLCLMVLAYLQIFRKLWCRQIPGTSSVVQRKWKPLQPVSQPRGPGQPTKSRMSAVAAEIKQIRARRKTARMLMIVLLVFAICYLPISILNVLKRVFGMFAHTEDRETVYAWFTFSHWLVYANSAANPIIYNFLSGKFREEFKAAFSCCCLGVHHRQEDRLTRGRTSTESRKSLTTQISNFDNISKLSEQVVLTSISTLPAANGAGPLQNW
Type: cell-based
Method in brief: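 CHO-K1 cells stably expressing human OX2R were loaded with Fluo-4 AM (30 min 37 °C, 30 min RT) in HEPES-buffered HBSS with 0.1% BSA and probenecid. Calcium fluorescence was followed on FDSS for 2 min after compound addition; activity normalised to DMSO (0%) and 10 nM orexin A (100%).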

SMILES | OX2R agonist activity (3 μM, %) [%]
CS(=O)(=O)NC1CCCN(C(=O)C2CC2c2c(F)cccc2-c2c(F)cccc2F)C1 (racemic) [Example 31, a mixture of rac-N-{(3R)-1-[(1R,2R)-2-(2′,3,6′-trifluoro[1,1′-biphenyl]-2-yl)cyclopropane-1-carbonyl]piperidin-3-yl}methanesulfonamide and rac-N-{(3S)-1-[(1R,2R)-2-(2′,3,6′-trifluoro[1,1′-biphenyl]-2-yl)cyclopropane-1-carbonyl]piperidin-3-yl}methanesulfonamide] | 101
CS(=O)(=O)NC1CCCN(C(=O)C2CC2c2c(F)cccc2-c2c(F)cccc2F)CC1 (racemic) [Example 32, a mixture of rac-N-{(4R)-1-[(1R,2R)-2-(2′,3,6′-trifluoro[1,1′-biphenyl]-2-yl)cyclopropane-1-carbonyl]azepan-4-yl}methanesulfonamide and rac-N-{(4S)-1-[(1R,2R)-2-(2′,3,6′-trifluoro[1,1′-biphenyl]-2-yl)cyclopropane-1-carbonyl]azepan-4-yl}methanesulfonamide] | 102
O=C(C1CC1c1ccccc1-c1c(F)cccc1F)N1CCC(NS(=O)(=O)C2CC2)C1 (racemic) [Example 37, a mixture of rac-N-{(3R)-1-[(1R,2R)-2-(2′,6′-difluoro[1,1′-biphenyl]-2-yl)cyclopropane-1-carbonyl]pyrrolidin-3-yl}cyclopropanesulfonamide and rac-N-{(3S)-1-[(1R,2R)-2-(2′,6′-difluoro[1,1′-biphenyl]-2-yl)cyclopropane-1-carbonyl]pyrrolidin-3-yl}cyclopropanesulfonamide] | 101
CS(=O)(=O)NCC1CCN(C(=O)C2CC2c2ccccc2-c2c(F)cccc2F)C1 (racemic) [Example 40, a mixture of rac-N-({(3R)-1-[(1R,2R)-2-(2′,6′-difluoro[1,1′-biphenyl]-2-yl)cyclopropane-1-carbonyl]pyrrolidin-3-yl}methyl)methanesulfonamide and rac-N-({(3S)-1-[(1R,2R)-2-(2′,6′-difluoro[1,1′-biphenyl]-2-yl)cyclopropane-1-carbonyl]pyrrolidin-3-yl}methyl)methanesulfonamide] | 77
CS(=O)(=O)NC1CCCN(C(=O)C2CC2c2ccccc2-c2ccccc2Cl)CC1 (racemic) [Example 43, a mixture of rac-N-{(4R)-1-[(1R,2R)-2-(2′-chloro[1,1′-biphenyl]-2-yl)cyclopropane-1-carbonyl]azepan-4-yl}methanesulfonamide and rac-N-{(4S)-1-[(1R,2R)-2-(2′-chloro[1,1′-biphenyl]-2-yl)cyclopropane-1-carbonyl]azepan-4-yl}methanesulfonamide] | 92
CS(=O)(=O)NC1CCCN(C(=O)C2CC2c2ccccc2-c2cc(F)ccc2F)CC1 (racemic) [Example 51, a mixture of rac-N-{(4R)-1-[(1R,2R)-2-(2′,5′-difluoro[1,1′-biphenyl]-2-yl)cyclopropane-1-carbonyl]azepan-4-yl}methanesulfonamide and rac-N-{(4S)-1-[(1R,2R)-2-(2′,5′-difluoro[1,1′-biphenyl]-2-yl)cyclopropane-1-carbonyl]azepan-4-yl}methanesulfonamide] | 75
Cc1ccccc1-c1ccccc1C1CC1C(=O)N1CCCC(NS(C)(=O)=O)CC1 (racemic) [Example 52, a mixture of rac-N-{(4R)-1-[(1R,2R)-2-(2′-methyl[1,1′-biphenyl]-2-yl)cyclopropane-1-carbonyl]azepan-4-yl}methanesulfonamide and rac-N-{(4S)-1-[(1R,2R)-2-(2′-methyl[1,1′-biphenyl]-2-yl)cyclopropane-1-carbonyl]azepan-4-yl}methanesulfonamide] | 65
CS(=O)(=O)NC1CCCN(C(=O)C2CC2c2ccccc2-c2cccc(F)c2F)CC1 (racemic) [Example 54, a mixture of rac-N-{(4R)-1-[(1R,2R)-2-(2′,3′-difluoro[1,1′-biphenyl]-2-yl)cyclopropane-1-carbonyl]azepan-4-yl}methanesulfonamide and rac-N-{(4S)-1-[(1R,2R)-2-(2′,3′-difluoro[1,1′-biphenyl]-2-yl)cyclopropane-1-carbonyl]azepan-4-yl}methanesulfonamide] | 79
CS(=O)(=O)NC1CCCN(C(=O)C2CC2c2ccccc2-c2ccc(F)cc2F)CC1 (racemic) [Example 56, a mixture of rac-N-{(4R)-1-[(1R,2R)-2-(2′,4′-difluoro[1,1′-biphenyl]-2-yl)cyclopropane-1-carbonyl]azepan-4-yl}methanesulfonamide and rac-N-{(4S)-1-[(1R,2R)-2-(2′,4′-difluoro[1,1′-biphenyl]-2-yl)cyclopropane-1-carbonyl]azepan-4-yl}methanesulfonamide] | 85
CS(=O)(=O)NC1CCCN(C(=O)C2CC2c2ccccc2-c2ccccc2F)CC1 (racemic) [Example 59, a mixture of rac-N-{(4R)-1-[(1R,2R)-2-(2′-fluoro[1,1′-biphenyl]-2-yl)cyclopropane-1-carbonyl]azepan-4-yl}methanesulfonamide and rac-N-{(4S)-1-[(1R,2R)-2-(2′-fluoro[1,1′-biphenyl]-2-yl)cyclopropane-1-carbonyl]azepan-4-yl}methanesulfonamide] | 80
CS(=O)(=O)NC1CCCN(C(=O)C2CC2c2ccccc2-c2cc(F)ccc2F)C1 (racemic) [Example 65, a mixture of rac-N-{(3R)-1-[(1R,2R)-2-(2′,5′-difluoro[1,1′-biphenyl]-2-yl)cyclopropane-1-carbonyl]piperidin-3-yl}methanesulfonamide and rac-N-{(3S)-1-[(1R,2R)-2-(2′,5′-difluoro[1,1′-biphenyl]-2-yl)cyclopropane-1-carbonyl]piperidin-3-yl}methanesulfonamide] | 83
Cc1ccccc1-c1ccccc1C1CC1C(=O)N1CCCC(NS(C)(=O)=O)C1 (racemic) [Example 66, a mixture of rac-N-{(3R)-1-[(1R,2R)-2-(2′-methyl[1,1′-biphenyl]-2-yl)cyclopropane-1-carbonyl]piperidin-3-yl}methanesulfonamide and rac-N-{(3S)-1-[(1R,2R)-2-(2′-methyl[1,1′-biphenyl]-2-yl)cyclopropane-1-carbonyl]piperidin-3-yl}methanesulfonamide] | 52

More lines, now with the values ahead:

OX2R agonist activity (3 μM, %) [%] | SMILES
98 | CCS(=O)(=O)NC1CCN(C(=O)C2CC2c2ccccc2-c2c(F)cccc2F)C1 (racemic) [Example 27, a mixture of rac-N-{(3R)-1-[(1R,2R)-2-(2′,6′-difluoro[1,1′-biphenyl]-2-yl)cyclopropane-1-carbonyl]pyrrolidin-3-yl}ethanesulfonamide and rac-N-{(3S)-1-[(1R,2R)-2-(2′,6′-difluoro[1,1′-biphenyl]-2-yl)cyclopropane-1-carbonyl]pyrrolidin-3-yl}ethanesulfonamide]
103 | CCS(=O)(=O)NC1CCCN(C(=O)C2CC2c2ccccc2-c2c(F)cccc2F)C1 (racemic) [Example 28, a mixture of rac-N-{(3R)-1-[(1R,2R)-2-(2′,6′-difluoro[1,1′-biphenyl]-2-yl)cyclopropane-1-carbonyl]piperidin-3-yl}ethanesulfonamide and rac-N-{(3S)-1-[(1R,2R)-2-(2′,6′-difluoro[1,1′-biphenyl]-2-yl)cyclopropane-1-carbonyl]piperidin-3-yl}ethanesulfonamide]
106 | CS(=O)(=O)NC1CCCN(C(=O)C2CC2c2ccccc2-c2c(F)cccc2F)CC1 (racemic) [Example 38, a mixture of rac-N-{(4R)-1-[(1R,2R)-2-(2′,6′-difluoro[1,1′-biphenyl]-2-yl)cyclopropane-1-carbonyl]azepan-4-yl}methanesulfonamide and rac-N-{(4S)-1-[(1R,2R)-2-(2′,6′-difluoro[1,1′-biphenyl]-2-yl)cyclopropane-1-carbonyl]azepan-4-yl}methanesulfonamide]
102 | CS(=O)(=O)NC1CCCN(C(=O)C2CC2c2ccccc2-c2c(F)cccc2F)C1 (racemic) [Example 39, a mixture of rac-N-{(3R)-1-[(1R,2R)-2-(2′,6′-difluoro[1,1′-biphenyl]-2-yl)cyclopropane-1-carbonyl]piperidin-3-yl}methanesulfonamide and rac-N-{(3S)-1-[(1R,2R)-2-(2′,6′-difluoro[1,1′-biphenyl]-2-yl)cyclopropane-1-carbonyl]piperidin-3-yl}methanesulfonamide]
97 | CS(=O)(=O)NC1CCCCN(C(=O)C2CC2c2ccccc2-c2c(F)cccc2F)C1 (racemic) [Example 41, a mixture of rac-N-{(3R)-1-[(1R,2R)-2-(2′,6′-difluoro[1,1′-biphenyl]-2-yl)cyclopropane-1-carbonyl]azepan-3-yl}methanesulfonamide and rac-N-{(3S)-1-[(1R,2R)-2-(2′,6′-difluoro[1,1′-biphenyl]-2-yl)cyclopropane-1-carbonyl]azepan-3-yl}methanesulfonamide]
